10 compounds from patent publication EP2647626A1, “1-Aza-spiro[4.5]dec-3-ene and 1,8-diaza-spiro[4.5]dec-3-ene derivatives as pesticides” (Syngenta Participations AG, priority 2012, dated 2013) can be followed below.

SMILES strings stand for the structures. Where two headings read alike, the source gives them in different places.

What all share (assay type): in vivo
For series [1], the system named is Myzus persicae (green peach aphid). Nature of the series: Activity against Myzus persicae, mixed population, feeding/residual contact activity on sprayed cabbage plants. As to conditions: 144 h, read-out: activity against Myzus persicae. The procedure:
(§1) (mixed population, feeding/residual contact activity, plant damage evaluation)
(§2) Cabbage plants infested with a mixed population of Myzus persicae were treated with diluted test solutions of the compounds in a spray chamber. 6 days after treatment, samples were checked for mortality and for plant damage (phytotoxicity), visual assessment being made using a 0-100% rating scale (100% = total damage to plant; 0% = no damage to plant).

A further series concerns cabbage plants. Nature of the series: Plant damage evaluation (phytotoxicity) on sprayed cabbage plants, visual 0-100% rating scale. The following applies: concentration of 200ppm; 6 days after treatment; 100% = total damage to plant, 0% = no damage to plant. The procedure:
Example B5: Activity against Myzus persicae (green peach aphid)
as §1, §2

Series [2] relates to Tetranychus urticae (two-spotted spider mite). Nature of the series: Activity against Tetranychus urticae, mixed population, feeding/residual contact activity, preventive (bean leaf discs). The following applies: foliar, 192 h, concentration of 400ppm, egg, larval and adult mortality checked 8 days later, bean leaf discs sprayed. An excerpt: Example B4: Activity against Tetranychus urticae (two-spotted spider mite)
(mixed population, feeding/residual contact activity, preventive)
Bean leaf discs on agar in 24-well microtiter plates were sprayed with test solutions. After drying, the leaf discs were infested with mite populations of mixed ages. 8 days later, discs were checked for egg mortality, larval mortality, and adult mortality.

In series [3] the test system is Myzus persicae (green peach aphid). In words: Activity against Myzus persicae, mixed population, systemic/feeding activity, curative (pea seedling roots in test solution). As to conditions: 144 h, read-out: activity. An excerpt: Example B2: Activity against Myzus persicae (green peach aphid) (mixed population, systemic/feeding activity, curative)
Roots of pea seedlings, infested with an aphid population of mixed ages, were placed directly in the test solutions. 6 days after introduction, samples were checked for mortality and special effects on the plant.

The test system is the same in series [4]. Nature of the series: Activity against Myzus persicae, mixed population, feeding/residual contact activity, preventive (sunflower leaf discs). The following applies: foliar, 144 h, read-out: activity. The method, then:
Example B1: Activity against Myzus persicae (green peach aphid) (mixed population, feeding/residual contact activity, preventive)
Sunflower leaf discs were placed on agar in a 24-well microtiter plate and sprayed with test solutions. After drying, the leaf discs were infested with an aphid population of mixed ages. After an incubation period of 6 days, samples were checked for mortality and special effects (e.g. phytotoxicity).

Setting [5] is: concentration of 200ppm, mortality 6 days after treatment, cabbage plants, spray chamber.
Setting [6] is: concentration of 400ppm, mortality checked 6 days after introduction, roots of pea seedlings in test solution.
Setting [7] is: concentration of 400ppm, mortality checked after 6 days, sunflower leaf discs sprayed.

As for `CO[C@H]1CC[C@@]2(CC1)C(=O)C(c1cc(C)ccc1C)C(=O)N2c1ccccc1` (relative stereo) [P2.1, cis-3-(2,5-dimethyl-phenyl)-8-methoxy-1-phenyl-1-aza-spiro[4.5]decane-2,4-dione], the mortality at 200 ppm in series [1] (setting [5]) is at least 80%.
On the same count and under the same terms, under `CCOC(=O)OC1=C(c2cc(C)ccc2C)C(=O)N(c2ccccc2)[C@]12CC[C@@H](OC)CC2` [P1.1, carbonic acid cis-3-(2,5-dimethyl-phenyl)-8-methoxy-2-oxo-1-phenyl-1-aza-spiro[4.5]dec-3-en-4-yl ester ethyl ester] stands at least 80%.
As for `CCOC(=O)OC1=C(c2cc(C)ccc2C)C(=O)N(c2ccccc2)C12CCN(OC)CC2` [P1.2], the “damage to cabbage plants” value in the series on cabbage plants is recorded as at most 10%. The mortality at 200 ppm in series [1] was at least 80%. The mortality at 400 ppm in series [2] and in series [3] (setting [6]) was over 80% each time.
Regarding `CCOC(=O)OC1=C(c2c(C)cc(Br)cc2C)C(=O)N(c2ccccc2)C12CCN(OC)CC2` [P1.3], the “damage to cabbage plants” value in the series on cabbage plants is listed as at most 10%. In addition, the mortality at 200 ppm in series [1] was at least 80%. Also, the mortality at 400 ppm in series [2], in series [3] (setting [6]) and in series [4] (setting [7]) was over 80% in each case.
Turning to `CCOC(=O)OC1=C(c2c(C)cc(C)cc2C)C(=O)N(c2ccccc2)C12CCN(OC)CC2` [P1.4], the mortality at 400 ppm in series [3] (setting [6]) is over 80%.
As for `CCOC(=O)OC1=C(c2c(C)cc(Cl)cc2C)C(=O)N(c2ccccc2)C12CCN(OC)CC2` [P1.5], in the series on cabbage plants, the “damage to cabbage plants” value was at most 10%. Moreover, the mortality at 200 ppm in series [1] is at least 80%. Also, the mortality at 400 ppm in series [3] (setting [6]) and in series [4] (setting [7]) was over 80% each time.
As for `CON1CCC2(CC1)C(=O)C(c1cc(C)ccc1C)C(=O)N2c1ccccc1` (centres unmarked) [P2.2], the “damage to cabbage plants” value in the series with cabbage plants is at most 10%. Moreover, the mortality at 200 ppm in series [1] is at least 80%.
Take `CON1CCC2(CC1)C(=O)C(c1c(C)cc(Br)cc1C)C(=O)N2c1ccccc1` (centres unmarked) [P2.3]: in the series with cabbage plants, the “damage to cabbage plants” value is recorded as at most 10%. Moreover, in series [1], the mortality at 200 ppm is at least 80%. Further, the mortality at 400 ppm in series [2], in series [3] (setting [6]) and in series [4] (setting [7]) was over 80% throughout.
Turning to `CON1CCC2(CC1)C(=O)C(c1c(C)cc(C)cc1C)C(=O)N2c1ccccc1` (centres unmarked) [P2.4], in the series on cabbage plants, the “damage to cabbage plants” value is at most 10%. Moreover, the mortality at 200 ppm in series [1] is at least 80%. For the same compound, the mortality at 400 ppm in series [2], in series [3] (setting [6]) and in series [4] (setting [7]) was over 80% in each case.
For the compound `CON1CCC2(CC1)C(=O)C(c1c(C)cc(Cl)cc1C)C(=O)N2c1ccccc1` (centres unmarked) [P2.5, 3-(4-chloro-2,6-dimethyl-phenyl)-8-methoxy-1-phenyl-1,8-diaza-spiro[4.5]decane-2,4-dione], in the series with cabbage plants, the “damage to cabbage plants” value was at most 10%. Further, the mortality at 200 ppm in series [1] was at least 80%. In addition, the mortality at 400 ppm in series [3] and in series [4] was over 80% each time.
